Here are results for 39 molecules from ChEMBL document CHEMBL1156829 (Proc Natl Acad Sci U S A, 2008).

The subject of series [1] is Plasmodium falciparum. Briefly: NOVARTIS: Inhibition of Plasmodium falciparum 3D7 (drug-susceptible) proliferation in erythrocyte-based infection assay. The class given is functional, organism-based. Particulars: Plasmodium falciparum, 3D7.
Series [2] concerns Plasmodium falciparum. Briefly: NOVARTIS: Inhibition of Plasmodium falciparum W2 (drug-resistant) proliferation in erythrocyte-based infection assay. The class given is functional, organism-based. The conditions noted are these: Plasmodium falciparum, W2; read-out: EC50.
Series [3] can be described thus: NOVARTIS: Cytotoxicity against human hepatocellular carcinoma cell line (Huh7). The class given is toxicity, cell-based, Huh-7. The conditions noted are these: Huh7 cells (hepatocellular carcinoma cell line).

Some results are limits rather than exact numbers.

Consider `COc1ccc(C(c2ccc(N(C)C)cc2)c2ccc(N(C)C)cc2)cc1`, for which the EC50 in the series on Plasmodium falciparum [1] worked out at 353 nM; in the series with Plasmodium falciparum [2], 277 nM. The molecule further gave a CC50 in series [3] greater than 100000 nM.
The corresponding values for `COc1cccc(C(=O)NCc2nnc(S)n2-c2ccc(Cl)c(Cl)c2)c1` are 275 nM, 273 nM and greater than 100000 nM.
The corresponding values for `CCc1ccccc1NC(=O)C1c2ccccc2C(=O)N(CC(C)C)C1c1cccs1` (configuration not stated) are 364 nM, 270 nM and greater than 97200 nM.
The corresponding values for `COc1ccc(NC2=C(N3CCCCC3)C(=O)c3ccccc3C2=O)cc1` are 33.1 nM, 35 nM and 12600 nM.
For `COc1ccc(C2CC(=O)C3=C(C2)NC(C)=C(C(=O)OC2CCCCC2)C3c2cccc(C)c2)cc1OC` (configuration not stated), the values for the EC50 with Plasmodium falciparum [1] and in the series on Plasmodium falciparum [2] were 837 nM and 281 nM, respectively. For the same molecule, in series [3], the half-maximal cytotoxic concentration (CC50) is greater than 100000 nM.
The corresponding values for `CCOC(=O)c1cnc2ccc(Cl)cc2c1NCCCN(C)C` are 826 nM, 135 nM and 48200 nM.
On to `CC1=CC(=Cc2sc3ccccc3[n+]2C)C=C(C)O1`, for which the results for the EC50 in the series on Plasmodium falciparum [1] and in the series on Plasmodium falciparum [2] were 31.3 nM and 23.7 nM, respectively. The molecule also showed a half-maximal cytotoxic concentration (CC50) in series [3] of 8350 nM.
The corresponding values for `COc1ccc(C2CC(=O)C3=C(C2)NC(C)=C(C(=O)OC(C)C)C3c2cccc(Br)c2)cc1OC` (configuration not stated) are 234 nM, 41.6 nM and 14700 nM.
The corresponding values for `COc1cc2c(OC3OCC(OC)C(OC)C3O)c3c(c(-c4ccc5c(c4)OCO5)c2cc1OC)C(=O)OC3` (configuration not stated) are 81.7 nM, 28.3 nM and greater than 10000 nM.
Consider `O=C(Nc1ccc(C(=O)Nc2ccc(C3=NCCCN3)cc2)cc1)Nc1ccc(C2=NCCCN2)cc1`, for which the figures for the concentration giving a half-maximal response (EC50) in the series with Plasmodium falciparum [1] and in the series on Plasmodium falciparum [2] were 34.4 nM and 20.4 nM, respectively. In addition, in series [3], the CC50 is greater than 7280 nM.
Regarding `O=C(NC1CCN(Cc2ccccc2)CC1)c1cc(-c2ccc(F)cc2)cc(-n2cnnn2)c1`, the EC50 with Plasmodium falciparum [1] and in the series on Plasmodium falciparum [2] was 126 nM throughout. Moreover, half-maximal cytotoxicity in series [3] (CC50) was put at 45000 nM.
As for `COc1ccc(-c2cc(C(F)(F)F)n3ncc(C(=O)Nc4cccc(Cl)c4Cl)c3n2)cc1OC`, the EC50 with Plasmodium falciparum [1] worked out at 2610 nM; in the series with Plasmodium falciparum [2] it was 275 nM. In series [3], this molecule displayed a CC50 greater than 100000 nM.
The corresponding values for `Oc1ccc(-c2ccc3c(c2)OCO3)cc1CNCC1CC2C=CC1C21CC1` (configuration not stated) are 1110 nM, 274 nM and greater than 100000 nM.
The corresponding values for `O=C(CSc1nc(-c2ccccc2Cl)ns1)Nc1ccc2c(c1)OCCO2` are 593 nM, 273 nM and greater than 100000 nM.
The corresponding values for `CCN(CC)c1ccc(C=NNC(=O)c2ccc(Nc3nc(-c4ccccc4)cs3)cc2)c(O)c1` are 151 nM, 54.8 nM and 20100 nM.
With `CC(C)(C)CC(C)(C)c1ccc(O)c(CN2CCN(CCC#N)CC2)c1`, the EC50 was found to be 1290 nM with Plasmodium falciparum [1] and 272 nM with Plasmodium falciparum [2]. The same molecule yielded a CC50 in series [3] greater than 100000 nM.
The corresponding values for `Oc1ccc(-c2ccccc2)cc1CNCCCN1CCOCC1` are 706 nM, 28.4 nM and greater than 10000 nM.
Turning to `COc1ccc(CNC2CCN(Cc3ccccc3)CC2)cc1OCc1ccccc1`, the EC50 is 1030 nM with Plasmodium falciparum [1] and 27.9 nM in the series on Plasmodium falciparum [2]. Also, the CC50 in series [3] is greater than 10000 nM.
The corresponding values for `CCCn1c(SCC(=O)N2c3ccccc3CC2C)nc2c1c(=O)n(C)c(=O)n2C` (configuration not stated) are greater than 1250 nM, less than 27.1 nM and greater than 10000 nM.
As for `N=C(NN=Cc1ccc([N+](=O)[O-])cc1)NN=Cc1ccc([N+](=O)[O-])cc1`, the values for the EC50 in the series on Plasmodium falciparum [1] and with Plasmodium falciparum [2] were 280 nM and 271 nM, respectively. In addition, in series [3], the CC50 was greater than 100000 nM.
The corresponding values for `FC(F)(F)c1cccc(NC(=S)N2CCSC2c2ccc(Br)cc2)c1` (configuration not stated) are 217 nM, 116 nM and 43300 nM.
The corresponding values for `Oc1c(C(Nc2ccccn2)c2ccc(Br)cc2)ccc2cccnc12` (configuration not stated) are 358 nM, 284 nM and greater than 100000 nM.
The corresponding values for `COc1cccc(C(=O)NC(c2ccc(Cl)cc2)c2cc(Cl)c3cccnc3c2O)c1` (configuration not stated) are 2310 nM, 268 nM and greater than 100000 nM.
Consider `CCC(CC)CN1CCC(O)(c2ccc3oc(C(=O)Nc4ccc5c(c4)OCO5)cc3c2)CC1`, for which the values for the EC50 with Plasmodium falciparum [1] and in the series on Plasmodium falciparum [2] were 246 nM and 268 nM, respectively. In series [3], this molecule displayed a CC50 greater than 100000 nM.
The corresponding values for `Cc1ccc(Cn2c(N3CCC(C(=O)NCc4cccs4)CC3)nc3ccccc32)cc1` are 529 nM, 271 nM and greater than 100000 nM.
The corresponding values for `COc1ccc(C2=C(Nc3ccc(C)c(C)c3)c3ccccc3C2=O)cc1` are 297 nM, 281 nM and greater than 100000 nM.
On to `CCc1c(C(C)S(=O)(=O)c2ccc(C)cc2)[nH]c(=O)n1-c1ccc(OC(F)(F)F)cc1` (configuration not stated), for which the EC50 stood at 47.8 nM in the series on Plasmodium falciparum [1] and 16.2 nM in the series with Plasmodium falciparum [2]. In series [3], this molecule had a cytotoxic concentration (CC50) of 5750 nM.
`Cc1ccc(NC(=O)c2c(I)cnn2C)cc1[N+](=O)[O-]`: the figures for the 50% effective concentration (EC50) in the series on Plasmodium falciparum [1] and in the series on Plasmodium falciparum [2] were 192 nM and 280 nM, respectively. This molecule had a CC50 in series [3] greater than 100000 nM.
The corresponding values for `Clc1ccc2c(c1)CN(C1CCCCC1)CO2` are 2300 nM, 200 nM and 71000 nM.
In the case of `Cc1ccccc1Cc1c(C)nc2c(C#N)c(C)nn2c1C`, the EC50 turned out to be 282 nM in the series on Plasmodium falciparum [1] and 273 nM in the series with Plasmodium falciparum [2]. In series [3], this molecule showed a 50% cytotoxic concentration (CC50) greater than 100000 nM.
The corresponding values for `CCOc1cc(C2C(C(=O)OC)=CNC=C2C(=O)OC)cc(Br)c1OCC` are 388 nM, 277 nM and greater than 100000 nM.
The corresponding values for `O=C(CS(=O)(=O)c1ccc(C(F)(F)F)cn1)NNS(=O)(=O)c1ccc(Cl)cc1` are greater than 1340 nM, 26.7 nM and greater than 10000 nM.
The corresponding values for `CCOC(=O)C1=C(c2ccccc2)N=c2sc(=Cc3ccccc3O)c(=O)n2C1c1c(OC)ccc2ccccc12` (configuration not stated) are 2320 nM, 271 nM and greater than 100000 nM.
Turning to `CCC(c1nc2ccccc2c(=O)n1-c1ccc(Cl)cc1)N(Cc1ccccc1)C(=O)Nc1c(C(C)C)cccc1C(C)C` (configuration not stated), the concentration giving a half-maximal response (EC50) in the series with Plasmodium falciparum [1] is greater than 1420 nM; in the series on Plasmodium falciparum [2] it was 26.7 nM. In series [3], the CC50 is greater than 10000 nM.
In the case of `COc1ccc(Cl)cc1NC(=O)C1c2ccccc2C(=O)N(CC(C)C)C1c1cccs1` (configuration not stated), the EC50 in the series with Plasmodium falciparum [1] worked out at 837 nM; with Plasmodium falciparum [2], 272 nM. The CC50 in series [3] is greater than 100000 nM.
Consider `CC(C)c1cccc(C(C)C)c1NC(=O)N(Cc1ccccc1)C(C)c1nc2ccccc2c(=O)n1-c1ccc(Br)cc1` (configuration not stated), for which the EC50 is 1320 nM with Plasmodium falciparum [1] and 28 nM with Plasmodium falciparum [2]. In series [3], this molecule came in with a half-maximal cytotoxic concentration (CC50) greater than 10000 nM.
The corresponding values for `O=C(Nc1cccc(OC(=O)c2ccc([N+](=O)[O-])cc2)c1)c1ccc([N+](=O)[O-])cc1` are greater than 12500 nM, 270 nM and greater than 100000 nM.
The corresponding values for `CC(=O)N(C1=C(N2CCCC2)C(=O)c2ccccc2C1=O)c1ccccc1C` are 83.9 nM, 31.9 nM and 11500 nM.
As for `CCCCNCCN1CCN(c2ccc(OC)cc2)C[C@@H]1c1ccccc1`, the EC50 in the series with Plasmodium falciparum [1] is greater than 1280 nM; in the series on Plasmodium falciparum [2], 26.7 nM. This molecule also displayed a CC50 in series [3] greater than 10000 nM.
